Results taken from the NIST ThermoML archive (doi:10.1016/j.jct.2012.05.006).

Conditions: 101.33 kPa, Liquid, Vibrating tube method

CCCCCCCC[n+]1ccn(C)c1.N#C[S-] [1-methyl-3-octyl-1H-imidazolium thiocyanate]
Conditions	mass density [kg/m3]
288.15 K	1014
293.15 K	1011.1
298.15 K	1008.3
303.15 K	1005.4
308.15 K	1002.6
313.15 K	999.7
318.15 K	996.7
323.15 K	994.1
328.15 K	991.3
333.15 K	988.4
338.15 K	985.6
343.15 K	982.9
